# Measured values as given in patent publication US20150252047A1, “SUBSTITUTED INDAZOL-PYRROLOPYRIMIDINES USEFUL IN THE TREATMENT OF HYPERPROLIFERATIVE DISEASES” (BAYER PHARMA AKTIENGESELLSCHAFT, priority 2012, published 2015).
# Biological target: T1, human full-length MKNK1 (Homo sapiens, UniProt Q9BUB5, T385D)
# T1 construct: GST (N); purchased Carna Biosciences 02-145; host or cells: insect cells (baculovirus expression system)
# Test: MKNK1 kinase high ATP assay (TR-FRET)
# Assay type: biochemical
# Details: high ATP (2 mM final), 15 min preincubation with enzyme, 30 min reaction at 22° C.
# Procedure: MKNK1-inhibitory activity at high ATP of compounds of the present invention after their preincubation with MKNK1 was quantified employing the TR-FRET-based MKNK1 high ATP assay as described in the following paragraphs.
# A recombinant fusion protein of Glutathione-S-Transferase (GST, N-terminally) and human full-length MKNK1 (amino acids 1-424 and T344D of accession number BAA 19885.1), expressed in insect cells using baculovirus expression system and purified via glutathione sepharose affinity chromatography, was purchased from Carna Biosciences (product no 02-145) and used as enzyme. As substrate for the kinase reaction the biotinylated peptide biotin-Ahx-IKKRKLTRRKSLKG (C-terminus in amide form) was used, which can be purchased e.g. from the company Biosyntan (Berlin-Buch, Germany).
# For the assay 50 nL of a 100 fold concentrated solution of the test compound in DMSO was pipetted into a black low volume 384 well microtiter plate (Greiner Bio-One, Frickenhausen, Germany), 2 μL of a solution of MKNK1 in aqueous assay buffer [50 mM HEPES pH 7.5, 5 mM MgCl2, 1.0 mM dithiothreitol, 0.005% (v/v) Nonidet-P40 (Sigma)] was added and the mixture was incubated for 15 min at 22° C. to allow pre-binding of the test compounds to the enzyme before the start of the kinase reaction. Then the kinase reaction was started by the addition of 3 μL of a solution of adenosine-tri-phosphate (ATP, 3.3 mM=>final conc. in the 5 μL assay volume is 2 mM) and substrate (0.1 μM=>final conc. in the 5 μL assay volume is 0.06 μM) in assay buffer and the resulting mixture was incubated for a reaction time of 30 min at 22° C. The concentration of MKNK1 was adjusted depending of the activity of the enzyme lot and was chosen appropriate to have the assay in the linear range, typical concentrations were in the range of 0.003 μg/mL. The reaction was stopped by the addition of 5 μL of a solution of TR-FRET detection reagents (5 nM streptavidine-XL665 [Cisbio Bioassays, Codolet, France] and 1 nM anti-ribosomal protein S6 (pSer236)-antibody from Invitrogen [#44921G] and 1 nM LANCE EU-W1024 Labeled ProteinG [Perkin-Elmer, product no. AD0071]) in an aqueous EDTA-solution (100 mM EDTA, 0.1% (w/v) bovine serum albumin in 50 mM HEPES pH 7.5).
# The resulting mixture was incubated for 1 h at 22° C. to allow the formation of complex between the phosphorylated biotinylated peptide and the detection reagents. Subsequently the amount of phosphorylated substrate was evaluated by measurement of the resonance energy transfer from the Eu-chelate to the streptavidine-XL. Therefore, the fluorescence emissions at 620 nm and 665 nm after excitation at 350 nm were measured in a TR-FRET reader, e.g. a Rubystar (BMG Labtechnologies, Offenburg, Germany) or a Viewlux (Perkin-Elmer). The ratio of the emissions at 665 nm and at […] was taken as the measure for the amount of phosphorylated substrate. The data were normalised (enzyme reaction without inhibitor=0% inhibition, all other assay components but no enzyme=100% inhibition).
# T1 sequence (Q9BUB5 1-424 isoform Q9BUB5-2 T344D): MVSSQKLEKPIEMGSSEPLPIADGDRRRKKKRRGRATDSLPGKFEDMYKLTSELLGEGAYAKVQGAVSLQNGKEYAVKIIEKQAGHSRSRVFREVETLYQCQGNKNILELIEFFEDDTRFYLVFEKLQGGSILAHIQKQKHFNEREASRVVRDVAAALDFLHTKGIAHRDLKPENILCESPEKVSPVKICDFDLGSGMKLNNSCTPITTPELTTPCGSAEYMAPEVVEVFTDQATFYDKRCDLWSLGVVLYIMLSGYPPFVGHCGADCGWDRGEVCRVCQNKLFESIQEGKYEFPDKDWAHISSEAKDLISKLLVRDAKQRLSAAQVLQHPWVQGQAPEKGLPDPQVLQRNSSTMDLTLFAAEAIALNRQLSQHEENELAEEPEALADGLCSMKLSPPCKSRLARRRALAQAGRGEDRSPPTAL
row,SMILES,IC50 [nM]
1,"COc1cc2[nH]ncc2cc1Nc1ncnc2[nH]c(Cl)cc12 [Example 41, 6-Chloro-N-(6-methoxy-1H-indazol-5-yl)-7H-pyrrolo[2,3-d]pyrimidin-4-amine]",21
2,"CCCc1[nH]c2ncnc(Nc3cc4cn[nH]c4cc3OC(C)C)c2c1CC [Example 45, 5-Ethyl-N-[6-(propan-2-yloxy)-1H-indazol-5-yl]-6-propyl-7H-pyrrolo[2,3-d]pyrimidin-4-amine]",21
3,"COc1cc2[nH]ncc2cc1Nc1ncnc2[nH]c(C(=O)N3C[C@H]4C[C@@H]3CO4)c(Br)c12 [Example 65, {5-Bromo-4-[(6-methoxy-1H-indazol-5-yl)amino]-7H-pyrrolo[2,3-d]pyrimidin-6-yl}[(1R,4R)-2-oxa-5-azabicyclo[2.2.1]hept-5-yl]methanone]",4
4,"N#Cc1n[nH]c2ccc(Nc3ncnc4[nH]ccc34)cc12 [Example 43, 5-(7H-Pyrrolo[2,3-d]pyrimidin-4-ylamino)-1H-indazole-3-carbonitrile]",1340
5,"COc1cc2[nH]ncc2cc1Nc1ncnc2[nH]c(S(C)(=O)=O)cc12 [Example 21, N-(6-Methoxy-1H-indazol-5-yl)-6-(methylsulfonyl)-7H-pyrrolo[2,3-d]pyrimidin-4-amine]",6
6,"Cc1cc2[nH]ncc2cc1Nc1ncnc2[nH]cc(C(=O)N3CCN(C)CC3)c12 [Example 13, {4-[(6-Methyl-1H-indazol-5-yl)amino]-7H-pyrrolo[2,3-d]pyrimidin-5-yl}(4-methylpiperazin-1-yl)methanone]",194
7,"COc1cc2[nH]ncc2cc1Nc1ncnc2[nH]cc(C(=O)O)c12 [Example 4, 4-[(6-methoxy-1H-indazol-5-yl)amino]-7H-pyrrolo[2,3-d]pyrimidine-5-carboxylic acid]",72
8,"CCOC(=O)c1cc2c(Nc3cc4cn[nH]c4cc3OC)ncnc2[nH]1 [Example 42, Ethyl 4-[(6-methoxy-1H-indazol-5-yl)amino]-7H-pyrrolo[2,3-d]pyrimidine-6-carboxylate]",3
9,"CN1CCN(C(=O)c2c[nH]c3ncnc(Nc4cc5cn[nH]c5cc4F)c23)CC1 [Example 17, {4-[(6-Fluoro-1H-indazol-5-yl)amino]-7H-pyrrolo[2,3-d]pyrimidin-5-yl}(4-methylpiperazin-1-yl)methanone]",30
10,"COc1cc2[nH]ncc2cc1Nc1ncnc2[nH]c(C(=O)NCC(=O)N(C)C)c(Br)c12 [Example 68, 5-Bromo-N-[2-(dimethylamino)-2-oxoethyl]-4-[(6-methoxy-1H-indazol-5-yl)amino]-7H-pyrrolo[2,3-d]pyrimidine-6-carboxamide]",14
11,"CC(C)Oc1cc2[nH]ncc2cc1Nc1ncnc2[nH]ccc12 [Example 24, N-[6-(Propan-2-yloxy)-1H-indazol-5-yl]-7H-pyrrolo[2,3-d]pyrimidin-4-amine]",26
12,"FC(F)(F)c1n[nH]c2ccc(Nc3ncnc4[nH]ccc34)cc12 [Example 7, N-[3-(trifluoromethyl)-1H-indazol-5-yl]-7H-pyrrolo[2,3-d]pyrimidin-4-amine]",179
13,"COc1cc2[nH]ncc2cc1Nc1ncnc2[nH]c(C(=O)N3CCOC[C@H]3C)c(Br)c12 [Example 67, {5-Bromo-4-[(6-methoxy-1H-indazol-5-yl)amino]-7H-pyrrolo[2,3-d]pyrimidin-6-yl}[(3R)-3-methylmorpholin-4-yl]methanone]",3
14,"CC(C)Oc1cc2[nH]ncc2cc1Nc1ncnc2[nH]cc(Br)c12 [Example 26, 5-Bromo-N-[6-(propan-2-yloxy)-1H-indazol-5-yl]-7H-pyrrolo[2,3-d]pyrimidin-4-amine]",2
15,"Cc1cc2[nH]ncc2cc1Nc1ncnc2[nH]cc(C(=O)N(C)C)c12 [Example 12, N,N-Dimethyl-4-[(6-methyl-1H-indazol-5-yl)amino]-7H-pyrrolo[2,3-d]pyrimidine-5-carboxamide]",211
16,"CC(C)Oc1cc2[nH]ncc2cc1Nc1ncnc2[nH]c(Br)cc12 [Example 36, 6-Bromo-N-[6-(propan-2-yloxy)-1H-indazol-5-yl]-7H-pyrrolo[2,3-d]pyrimidin-4-amine]",34
17,"CCc1[nH]c2ncnc(Nc3cc4cn[nH]c4cc3OC)c2c1C [Example 1, 6-Ethyl-N-(6-methoxy-1H-indazol-5-yl)-5-methyl-7H-pyrrolo[2,3-d]pyrimidin-4-amine]",3
18,"CC(C)Oc1cc2[nH]ncc2cc1Nc1ncnc2[nH]c(Cl)cc12 [Example 40, 6-Chloro-N-[6-(propan-2-yloxy)-1H-indazol-5-yl]-7H-pyrrolo[2,3-d]pyrimidin-4-amine]",29
19,"Cc1cc2[nH]ncc2cc1Nc1ncnc2[nH]cc(C(=O)O)c12 [Example 8, 4-[(6-Methyl-1H-indazol-5-yl)amino]-7H-pyrrolo[2,3-d]pyrimidine-5-carboxylic acid]",72
20,"COc1cc2[nH]ncc2cc1Nc1ncnc2[nH]c(C(=O)N3CCC3)c(Br)c12 [Example 66, Azetidin-1-yl{5-bromo-4-[(6-methoxy-1H-indazol-5-yl)amino]-7H-pyrrolo[2,3-d]pyrimidin-6-yl}methanone]",2
21,"CC(C)Oc1cc2[nH]ncc2cc1Nc1ncnc2[nH]cc(F)c12 [Example 25, 5-Fluoro-N-[6-(propan-2-yloxy)-1H-indazol-5-yl]-7H-pyrrolo[2,3-d]pyrimidin-4-amine]",5

# Continued, values first:
row,IC50 [nM],SMILES
1,1,"COc1cc2[nH]ncc2cc1Nc1ncnc2[nH]c(C(=O)N3CCCC3)c(Br)c12 [Example 61, {5-Bromo-4-[(6-methoxy-1H-indazol-5-yl)amino]-7H-pyrrolo[2,3-d]pyrimidin-6-yl}(pyrrolidin-1-yl)methanone]"
2,1,"COc1cc2[nH]ncc2cc1Nc1ncnc2[nH]cc(C#N)c12 [Example 35, 4-[(6-Methoxy-1H-indazol-5-yl)amino]-7H-pyrrolo[2,3-d]pyrimidine-5-carbonitrile]"
3,< 1,"COc1cc2[nH]ncc2cc1Nc1ncnc2[nH]c(S(=O)(=O)c3ccccc3)cc12 [Example 50, N-(6-Methoxy-1H-indazol-5-yl)-6-(phenylsulfonyl)-7H-pyrrolo[2,3-d]pyrimidin-4-amine]"
4,1,"COc1cc2[nH]ncc2cc1Nc1ncnc2[nH]c(S(=O)(=O)c3ccc(C)cc3)cc12 [Example 51, N-(6-Methoxy-1H-indazol-5-yl)-6-[(4-methylphenyl)sulfonyl]-7H-pyrrolo[2,3-d]pyrimidin-4-amine]"
5,2,"COc1cc2[nH]ncc2cc1Nc1ncnc2[nH]c(C(=O)N3CCOCC3)c(Br)c12 [Example 58, {5-Bromo-4-[(6-methoxy-1H-indazol-5-yl)amino]-7H-pyrrolo[2,3-d]pyrimidin-6-yl}(morpholin-4-yl)methanone]"
6,1,"COc1cc2[nH]ncc2cc1Nc1ncnc2[nH]c(C(=O)N3C[C@@H]4C[C@H]3CO4)c(Br)c12 [Example 64, {5-Bromo-4-[(6-methoxy-1H-indazol-5-yl)amino]-7H-pyrrolo[2,3-d]pyrimidin-6-yl}[(1S,4S)-2-oxa-5-azabicyclo[2.2.1]hept-5-yl]methanone]"
7,< 1,"CCOC(=O)c1[nH]c2ncnc(Nc3cc4cn[nH]c4cc3OC)c2c1Br [Example 47, Ethyl 5-bromo-4-[(6-methoxy-1H-indazol-5-yl)amino]-7H-pyrrolo[2,3-d]pyrimidine-6-carboxylate]"
8,1,"Cc1c[nH]c2ncnc(Nc3cc4cn[nH]c4cc3OC(C)C)c12 [Example 38, 5-Methyl-N-[6-(propan-2-yloxy)-1H-indazol-5-yl]-7H-pyrrolo[2,3-d]pyrimidin-4-amine]"
9,1,"CCc1c[nH]c2ncnc(Nc3cc4cn[nH]c4cc3OC)c12 [Example 57, 5-Ethyl-N-(6-methoxy-1H-indazol-5-yl)-7H-pyrrolo[2,3-d]pyrimidin-4-amine]"
10,1,"COc1cc2[nH]ncc2cc1Nc1ncnc2[nH]c(C(=O)N(C)C)c(Br)c12 [Example 59, 5-Bromo-4-[(6-methoxy-1H-indazol-5-yl)amino]-N,N-dimethyl-7H-pyrrolo[2,3-d]pyrimidine-6-carboxamide]"
